{"source": "ChEMBL document CHEMBL1139269", "about": "“Stereoselective inhibition of serotonin re-uptake and phosphodiesterase by dual inhibitors as potential agents for depression” (Bioorg Med Chem, 2009)", "key": {"[1]": {"molecular_target": "T1, Sodium-dependent dopamine transporter (Homo sapiens, UniProt Q01959)", "T1 sequence (Q01959 whole entry)": "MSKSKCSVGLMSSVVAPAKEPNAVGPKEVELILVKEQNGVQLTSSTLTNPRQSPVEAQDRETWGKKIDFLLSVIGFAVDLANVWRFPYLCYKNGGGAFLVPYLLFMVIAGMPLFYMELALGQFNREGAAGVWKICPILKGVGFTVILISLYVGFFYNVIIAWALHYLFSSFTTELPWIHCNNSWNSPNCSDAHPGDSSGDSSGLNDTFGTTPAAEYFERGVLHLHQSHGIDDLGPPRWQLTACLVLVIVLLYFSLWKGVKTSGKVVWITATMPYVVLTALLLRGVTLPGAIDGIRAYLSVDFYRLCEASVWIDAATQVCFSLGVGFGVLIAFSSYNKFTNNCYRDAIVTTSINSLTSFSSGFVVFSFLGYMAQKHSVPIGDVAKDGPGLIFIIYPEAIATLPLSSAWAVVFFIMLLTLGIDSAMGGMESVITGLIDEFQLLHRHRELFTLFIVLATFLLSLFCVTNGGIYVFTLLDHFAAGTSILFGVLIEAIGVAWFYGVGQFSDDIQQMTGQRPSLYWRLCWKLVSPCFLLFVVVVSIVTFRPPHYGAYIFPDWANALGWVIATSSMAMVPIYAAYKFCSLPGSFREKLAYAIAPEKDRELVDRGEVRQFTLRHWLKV", "test": "Inhibition of [3H]DA from human recombinant DAT expressed in HEK293 cells", "assay_type": "cell-based"}, "[2]": {"molecular_target": "T2, 3',5'-cyclic-AMP phosphodiesterase 4D (Homo sapiens, UniProt Q08499)", "T2 sequence (Q08499 whole entry)": "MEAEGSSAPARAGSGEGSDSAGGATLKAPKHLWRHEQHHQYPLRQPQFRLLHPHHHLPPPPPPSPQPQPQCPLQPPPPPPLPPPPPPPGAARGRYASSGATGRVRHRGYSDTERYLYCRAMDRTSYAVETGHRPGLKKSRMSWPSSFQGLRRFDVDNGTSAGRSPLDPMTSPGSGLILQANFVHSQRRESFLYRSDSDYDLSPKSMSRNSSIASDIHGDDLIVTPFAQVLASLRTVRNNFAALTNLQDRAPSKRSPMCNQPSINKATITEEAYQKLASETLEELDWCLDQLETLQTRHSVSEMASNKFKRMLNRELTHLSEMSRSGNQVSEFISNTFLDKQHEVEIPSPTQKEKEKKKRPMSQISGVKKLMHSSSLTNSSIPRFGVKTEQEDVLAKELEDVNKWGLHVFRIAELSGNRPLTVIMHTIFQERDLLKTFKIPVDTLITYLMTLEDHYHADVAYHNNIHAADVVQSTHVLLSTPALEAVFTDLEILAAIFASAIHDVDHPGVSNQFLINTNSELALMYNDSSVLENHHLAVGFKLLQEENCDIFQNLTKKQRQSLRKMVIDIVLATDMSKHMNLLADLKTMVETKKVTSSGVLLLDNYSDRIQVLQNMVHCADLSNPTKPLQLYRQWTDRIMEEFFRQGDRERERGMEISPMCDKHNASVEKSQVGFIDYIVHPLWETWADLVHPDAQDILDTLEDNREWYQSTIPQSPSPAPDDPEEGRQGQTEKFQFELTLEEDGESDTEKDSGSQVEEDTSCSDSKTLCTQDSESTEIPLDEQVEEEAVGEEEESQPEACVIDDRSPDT", "test": "Inhibition of PDE4D2 by rapid fluorescence based assay"}, "[3]": {"molecular_target": "T3, Sodium-dependent noradrenaline transporter (Homo sapiens, UniProt P23975)", "T3 sequence (P23975 whole entry)": "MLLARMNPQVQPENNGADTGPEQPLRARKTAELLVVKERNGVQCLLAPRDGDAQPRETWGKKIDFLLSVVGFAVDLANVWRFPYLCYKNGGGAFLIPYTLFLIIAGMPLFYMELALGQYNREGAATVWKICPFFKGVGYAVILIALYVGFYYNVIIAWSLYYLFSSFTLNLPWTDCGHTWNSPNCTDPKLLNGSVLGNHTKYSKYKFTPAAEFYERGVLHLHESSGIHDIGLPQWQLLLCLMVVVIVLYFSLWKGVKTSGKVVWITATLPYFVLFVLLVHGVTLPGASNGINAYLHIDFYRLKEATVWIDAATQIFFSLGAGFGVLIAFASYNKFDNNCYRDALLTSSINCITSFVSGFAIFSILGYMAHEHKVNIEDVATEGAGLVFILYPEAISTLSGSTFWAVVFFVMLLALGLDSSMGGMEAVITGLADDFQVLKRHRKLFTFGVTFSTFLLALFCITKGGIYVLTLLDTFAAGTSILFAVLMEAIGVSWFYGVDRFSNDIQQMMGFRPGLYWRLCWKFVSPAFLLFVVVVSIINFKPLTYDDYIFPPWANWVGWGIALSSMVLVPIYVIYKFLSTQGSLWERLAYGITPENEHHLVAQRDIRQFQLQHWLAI", "test": "Displacement of [125I]RTI55 from human recombinant NET expressed in HEK293 cells", "assay_type": "cell-based"}, "[4]": {"molecular_target": "T1, Sodium-dependent dopamine transporter", "test": "Displacement of [125I]RTI55 from human recombinant DAT expressed in HEK293 cells", "assay_type": "cell-based"}, "[5]": {"molecular_target": "T4, Sodium-dependent serotonin transporter (Homo sapiens, UniProt P31645)", "T4 sequence (P31645 whole entry)": "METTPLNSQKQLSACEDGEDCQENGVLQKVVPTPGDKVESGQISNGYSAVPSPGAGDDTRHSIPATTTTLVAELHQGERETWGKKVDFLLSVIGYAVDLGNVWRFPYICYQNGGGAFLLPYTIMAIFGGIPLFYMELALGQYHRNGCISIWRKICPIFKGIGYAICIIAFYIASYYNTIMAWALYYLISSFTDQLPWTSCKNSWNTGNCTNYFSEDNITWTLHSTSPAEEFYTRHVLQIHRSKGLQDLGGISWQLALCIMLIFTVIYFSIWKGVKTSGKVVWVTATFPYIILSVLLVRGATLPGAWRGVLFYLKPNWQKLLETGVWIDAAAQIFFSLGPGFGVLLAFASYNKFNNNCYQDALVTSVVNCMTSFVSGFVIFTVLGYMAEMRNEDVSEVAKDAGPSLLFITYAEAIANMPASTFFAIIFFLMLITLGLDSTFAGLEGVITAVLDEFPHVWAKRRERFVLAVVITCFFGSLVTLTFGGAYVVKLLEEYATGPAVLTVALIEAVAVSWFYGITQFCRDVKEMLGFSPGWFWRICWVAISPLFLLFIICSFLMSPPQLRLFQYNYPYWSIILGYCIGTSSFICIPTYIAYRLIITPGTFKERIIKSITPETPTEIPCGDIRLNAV", "test": "Inhibition of [3H]5HT from human recombinant SERT expressed in HEK293 cells", "assay_type": "cell-based"}, "[6]": {"molecular_target": "T4, Sodium-dependent serotonin transporter", "test": "biochemical", "assay_type": "cell-based, HEK293"}, "[7]": {"molecular_target": "T3, Sodium-dependent noradrenaline transporter", "test": "Inhibition of [3H]NE from human recombinant NET expressed in HEK293 cells", "assay_type": "cell-based"}, "[8]": {"molecular_target": "T2, 3',5'-cyclic-AMP phosphodiesterase 4D", "test": "Inhibition of PDE4D2 at 100 uM by rapid fluorescence based assay"}}, "note": "Calls of active or inactive are those of the source. No cut-off for these calls is given here."}
{"smiles": "COc1ccc(C2=NNC(=O)C3CC=CCC23)cc1OC", "note": "(stereo not given)", "values": [{"measurement": "IC50", "setting": "[1]", "value": "> 100", "unit": "µM"}, {"measurement": "IC50", "setting": "[2]", "value": 213, "unit": "nM"}, {"measurement": "Ki", "setting": "[3]", "value": "> 100", "unit": "µM"}, {"measurement": "Ki", "setting": "[4]", "value": "> 100", "unit": "µM"}, {"measurement": "IC50", "setting": "[5]", "value": "> 100000", "unit": "nM"}, {"measurement": "Ki", "setting": "[6]", "value": "> 100000", "unit": "nM"}, {"measurement": "IC50", "setting": "[7]", "value": "> 100", "unit": "µM"}]}
{"smiles": "NCC[C@@H](Oc1ccc(C(F)(F)F)cc1)c1ccccc1", "values": [{"measurement": "IC50", "setting": "[1]", "value": 7.13, "unit": "µM"}, {"measurement": "Ki", "setting": "[3]", "value": 7.49, "unit": "µM"}, {"measurement": "Ki", "setting": "[4]", "value": 3.66, "unit": "µM"}, {"measurement": "Activity", "setting": "[8]", "value": "inactive"}, {"measurement": "IC50", "setting": "[7]", "value": 2, "unit": "µM"}]}
{"smiles": "NCC[C@H](Oc1ccc(C(F)(F)F)cc1)c1ccccc1", "note": "[SEPROXETINE]", "values": [{"measurement": "IC50", "setting": "[1]", "value": 6.49, "unit": "µM"}, {"measurement": "IC50", "setting": "[2]", "value": "≥ 100000", "unit": "nM"}, {"measurement": "Ki", "setting": "[3]", "value": 6.19, "unit": "µM"}, {"measurement": "Ki", "setting": "[4]", "value": 4.54, "unit": "µM"}, {"measurement": "IC50", "setting": "[7]", "value": 2.81, "unit": "µM"}]}
{"smiles": "COc1ccc(C2=NN(CCCCCNCC[C@H](Oc3ccc(C(F)(F)F)cc3)c3ccccc3)C(=O)C3CC=CCC23)cc1OC", "note": "(stereo not given in full)", "values": [{"measurement": "IC50", "setting": "[1]", "value": 5.98, "unit": "µM"}, {"measurement": "IC50", "setting": "[2]", "value": 253, "unit": "nM"}, {"measurement": "Ki", "setting": "[3]", "value": 4.6, "unit": "µM"}, {"measurement": "Ki", "setting": "[4]", "value": 2.72, "unit": "µM"}, {"measurement": "IC50", "setting": "[5]", "value": 42, "unit": "nM"}, {"measurement": "Ki", "setting": "[6]", "value": 300, "unit": "nM"}, {"measurement": "IC50", "setting": "[7]", "value": 6.55, "unit": "µM"}]}
{"smiles": "COc1ccc(C2=NN(CCCCCNCC[C@@H](Oc3ccc(C(F)(F)F)cc3)c3ccccc3)C(=O)C3CC=CCC23)cc1OC", "note": "(stereo not given in full)", "values": [{"measurement": "IC50", "setting": "[1]", "value": "> 7", "unit": "µM"}, {"measurement": "IC50", "setting": "[2]", "value": 106, "unit": "nM"}, {"measurement": "Ki", "setting": "[3]", "value": 6.57, "unit": "µM"}, {"measurement": "Ki", "setting": "[4]", "value": 4.49, "unit": "µM"}, {"measurement": "IC50", "setting": "[5]", "value": 173, "unit": "nM"}, {"measurement": "Ki", "setting": "[6]", "value": 65, "unit": "nM"}, {"measurement": "IC50", "setting": "[7]", "value": 6.81, "unit": "µM"}]}
{"smiles": "COc1ccc(C2=NN(CCCCCBr)C(=O)C3CC=CCC23)cc1OC", "note": "(stereo not given)", "values": [{"measurement": "IC50", "setting": "[1]", "value": "> 100", "unit": "µM"}, {"measurement": "Ki", "setting": "[4]", "value": "> 100", "unit": "µM"}, {"measurement": "IC50", "setting": "[5]", "value": "> 100000", "unit": "nM"}, {"measurement": "Ki", "setting": "[6]", "value": "> 100000", "unit": "nM"}]}
